Source: patent publication US12059420B2 (BRISTOL-MYERS SQUIBB COMPANY, priority 2018, dated 2024)
pIC50: −log10 of the molar value.

target: T1, human IDO1 (Homo sapiens, UniProt P14902); assay: IDO inhibition assay in HEK293 cells stably expressing human IDO1 (kynurenine production, Ehrlich reagent, absorbance 490 nm); type: cell-based; settings: 20 hours incubation with compound, 500 nM reference standard = 100% inhibition, read-out: IDO1 HEK Human IC50
T1 construct: expressed in transfected cells
T1 sequence (P14902 whole entry): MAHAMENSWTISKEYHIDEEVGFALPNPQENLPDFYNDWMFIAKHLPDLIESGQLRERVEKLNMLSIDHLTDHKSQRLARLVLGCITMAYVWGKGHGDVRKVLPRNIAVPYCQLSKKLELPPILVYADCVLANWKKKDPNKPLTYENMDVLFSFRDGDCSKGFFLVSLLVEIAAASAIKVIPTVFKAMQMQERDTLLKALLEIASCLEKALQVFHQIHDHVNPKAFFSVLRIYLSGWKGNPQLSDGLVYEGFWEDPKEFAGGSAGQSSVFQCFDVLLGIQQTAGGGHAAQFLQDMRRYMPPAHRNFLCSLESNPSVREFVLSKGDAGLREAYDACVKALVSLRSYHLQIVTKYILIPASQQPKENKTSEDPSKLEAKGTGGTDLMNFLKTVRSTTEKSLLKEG
How it was run: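 HEK293 clones stably expressing human IDO1 (10,000 cells/well, phenol red-free RPMI, 10% FBS) were treated with compound for 20 hours at 37° C. After 0.2% TCA and 30 min at 50° C., kynurenine was read with Ehrlich reagent at 490 nm. IC50 was normalised to DMSO (0%) and 500 nM reference standard (100%).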

SMILES | pIC50
Cc1ccc(NC(=O)Nc2cc(-c3ccccc3-c3nnn[nH]3)nc(N(CC(C)C)C3CCCCC3)c2)cc1 [Example 286, 1-(2-(2-(1H-Tetrazol-5-yl)phenyl)-6-(cyclohexyl(isobutyl)amino)pyridin-4-yl)-3-(p-tolyl)urea] | 6.44
CC(C)CN(Cc1ccccc1)c1cc(NC(=O)Cc2ccc(F)c(Cl)c2)cc(-c2ccccc2-c2nnn[nH]2)n1 [Example 233, N-(2-(2-(1H-tetrazol-5-yl)phenyl)-6-(benzyl(isobutyl)amino)pyridin-4-yl)-2-(3-chloro-4-fluorophenyl)acetamide] | 6.02
CCCN(Cc1ccccc1)c1cc(NC(=O)Cc2ccc(C)cc2)cc(-c2ccccc2-c2nnn[nH]2)n1 [Example 291] | 6.90
Cc1ccc(CC(=O)Nc2cc(-c3ccccc3-c3nnn[nH]3)nc(N3CCc4ccccc4C3)c2)cc1 [Example 132, N-(2-(2-(1H-tetrazol-5-yl)phenyl)-6-(3,4-dihydroisoquinolin-2(1H)-yl)pyridin-4-yl)-2-(p-tolyl)acetamide] | 6.28
CCCN(c1cc(NC(=O)Nc2ccc(C)cc2)cc(-c2ccccc2C(=O)O)n1)C1CCCCC1 [Example 257, 2-(6-(cyclohexyl(propyl)amino)-4-(3-(p-tolyl)ureido)pyridin-2-yl)benzoic acid] | 5.72
CCCN(Cc1ccccc1)c1cc(NC(=O)Cc2cccc(OC(F)(F)F)c2)cc(-c2ccccc2-c2nn[nH]n2)n1 [Example 219] | 7.22
CCN(Cc1ccccc1)c1cc(NC(=O)Nc2ccc(C)cc2)cc(-c2ccccc2-c2nnn[nH]2)n1 [Example 274, 1-(2-(2-(1H-Tetrazol-5-yl)phenyl)-6-(benzyl(ethyl)amino)pyridin-4-yl)-3-(p-tolyl)urea] | 7.57
CC(C)CN(Cc1ccccc1)c1cc(Nc2nnc(-c3ccccc3)s2)cc(-c2ccccc2-c2nnn[nH]2)n1 [Example 52, 6-(2-(1H-tetrazol-5-yl)phenyl)-N2-benzyl-N2-isobutyl-N4-(5-phenyl-1,3,4-thiadiazol-2-yl)pyridine-2,4-diamine] | 6.72
CC(C)CN(Cc1ccccc1)c1cc(Nc2ccc(F)cc2)cc(-c2ccccc2-c2nnn[nH]2)n1 [Example 170, 6-(2-(1H-tetrazol-5-yl)phenyl)-N2-benzyl-N4-(4-fluorophenyl)-N2-isobutylpyridine-2,4-diamine] | 8.31
Cc1ccc(CC(=O)Nc2cc(-c3ccccc3-c3nnn[nH]3)nc(N3CCCC3C)c2)cc1 (stereo not drawn) [Example 128, N-(2-(2-(1H-tetrazol-5-yl)phenyl)-6-(2-methylpyrrolidin-1-yl)pyridin-4-yl)-2-(p-tolyl)acetamide] | 5.74
CC(C)c1ccc(CC(=O)Nc2cc(-c3ccccc3-c3nnn[nH]3)nc(N3CCc4ccccc4C3)n2)cc1 [Example 95, N-(6-(2-(1H-tetrazol-5-yl)phenyl)-2-(3,4-dihydroisoquinolin-2(1H)-yl)pyrimidin-4-yl)-2-(4-isopropylphenyl)acetamide] | 5.86
CCCN(Cc1ccccc1)c1cc(NC(=O)Nc2ccc(C)cc2)cc(-c2cc(C)ccc2-c2nnn[nH]2)n1 [Example 301, 1-(2-(Benzyl(propyl)amino)-6-(5-methyl-2-(1H-tetrazol-5-yl)phenyl)pyridin-4-yl)-3-(p-tolyl)urea] | 7.34
Cc1cnc(Nc2cc(-c3ccccc3-c3nnn[nH]3)nc(N(Cc3ccccc3)CC(C)C)c2)nc1 [Example 51, 6-(2-(1H-tetrazol-5-yl)phenyl)-N2-benzyl-N2-isobutyl-N4-(5-methylpyrimidin-2-yl)pyridine-2,4-diamine] | 7.22
CC(C)CN(Cc1ccccc1)c1cc(Nc2cccc(OC(F)(F)F)c2)cc(-c2ccccc2-c2nnn[nH]2)n1 [Example 193, 6-(2-(1H-tetrazol-5-yl)phenyl)-N2-benzyl-N2-isobutyl-N4-(3-(trifluoromethoxy)phenyl)pyridine-2,4-diamine] | 7.85
CCCN(Cc1ccccc1)c1cc(NC(=O)Cc2cccc3ccccc23)cc(-c2ccccc2-c2nn[nH]n2)n1 [Example 200, N-(2-(2-(2H-tetrazol-5-yl)phenyl)-6-(benzyl(propyl)amino)pyridin-4-yl)-2-(naphthalen-1-yl)acetamide] | 7.08
